The target in this assay is Epidermal growth factor receptor (Homo sapiens) (UniProt P00533). Briefly: decrease of p-EGFR levels in colorectal cells – HCT116 cells, chemiluminescent western blot, powder samples, counter-screen for KLF5 inhibitor project, late-stage follow-up (AID 588650). To be noted: HCT116 phospho-EGFR western blot, 24 h; at 10 µM; active compounds read high.
Epidermal growth factor receptor (Homo sapiens), sequence (P00533 whole entry, looked up): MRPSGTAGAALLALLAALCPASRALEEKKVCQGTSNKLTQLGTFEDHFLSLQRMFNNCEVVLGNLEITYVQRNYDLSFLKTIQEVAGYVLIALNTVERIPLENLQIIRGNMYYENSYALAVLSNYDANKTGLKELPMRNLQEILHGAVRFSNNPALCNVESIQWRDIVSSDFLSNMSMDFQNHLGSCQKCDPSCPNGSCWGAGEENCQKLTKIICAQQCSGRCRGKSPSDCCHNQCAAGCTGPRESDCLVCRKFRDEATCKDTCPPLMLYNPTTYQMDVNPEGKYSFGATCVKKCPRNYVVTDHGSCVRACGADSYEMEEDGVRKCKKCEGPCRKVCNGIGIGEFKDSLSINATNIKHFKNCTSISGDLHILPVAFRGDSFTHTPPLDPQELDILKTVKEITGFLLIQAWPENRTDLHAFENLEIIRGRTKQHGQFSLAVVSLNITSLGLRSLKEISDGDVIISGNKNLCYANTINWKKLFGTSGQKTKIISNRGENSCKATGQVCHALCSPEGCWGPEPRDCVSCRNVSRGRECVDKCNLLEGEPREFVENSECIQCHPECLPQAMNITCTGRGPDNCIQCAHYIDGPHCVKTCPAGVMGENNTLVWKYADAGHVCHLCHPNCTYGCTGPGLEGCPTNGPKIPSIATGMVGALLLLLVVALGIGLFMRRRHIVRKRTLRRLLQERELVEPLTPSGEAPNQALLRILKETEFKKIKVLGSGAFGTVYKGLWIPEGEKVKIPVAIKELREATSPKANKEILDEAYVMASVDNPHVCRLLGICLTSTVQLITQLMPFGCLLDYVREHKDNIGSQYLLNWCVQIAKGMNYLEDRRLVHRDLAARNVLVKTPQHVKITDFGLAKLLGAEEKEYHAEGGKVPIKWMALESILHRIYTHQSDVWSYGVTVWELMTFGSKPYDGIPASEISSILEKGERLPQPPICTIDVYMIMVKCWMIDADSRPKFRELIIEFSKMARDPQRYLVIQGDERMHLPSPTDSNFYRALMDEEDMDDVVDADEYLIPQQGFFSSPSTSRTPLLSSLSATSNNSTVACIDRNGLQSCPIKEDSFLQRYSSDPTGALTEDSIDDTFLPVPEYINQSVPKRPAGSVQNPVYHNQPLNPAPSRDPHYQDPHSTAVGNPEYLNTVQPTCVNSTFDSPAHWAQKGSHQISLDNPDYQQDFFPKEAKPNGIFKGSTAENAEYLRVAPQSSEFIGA
On to `CN(C(=O)CNC(=O)/C=C/c1cccc(Cl)c1)C1CCS(=O)(=O)C1` (stereo not drawn), for which the inhibition is -53.2%.

`CN(C(=O)COC(=O)/C=C/c1cccc([N+](=O)[O-])c1)C1CCS(=O)(=O)C1` (stereo not drawn): the inhibition was -64.9%. For the compound `CN(C(=O)CNC(=O)/C=C/c1cccc(Cl)c1)C1CCS(=O)(=O)CC1`, the inhibition is -254%.

By inhibition is commonly meant the change of the read-out against control, counted positive when it falls.

Source of the values: PubChem BioAssay AID588650 (The Scripps Research Institute Molecular Screening Center, 2011).
